Here are results for 23 molecules from patent US9169254B2, “Spiroimidazolone derivative” (Chugai Seiyaku Kabushiki Kaisha, priority 2009, dated 2015).

SMILES strings stand for the structures.

The target in one experiment is T1, human PTH1 receptor (Homo sapiens, UniProt Q03431).
T1 sequence (Q03431 27-593): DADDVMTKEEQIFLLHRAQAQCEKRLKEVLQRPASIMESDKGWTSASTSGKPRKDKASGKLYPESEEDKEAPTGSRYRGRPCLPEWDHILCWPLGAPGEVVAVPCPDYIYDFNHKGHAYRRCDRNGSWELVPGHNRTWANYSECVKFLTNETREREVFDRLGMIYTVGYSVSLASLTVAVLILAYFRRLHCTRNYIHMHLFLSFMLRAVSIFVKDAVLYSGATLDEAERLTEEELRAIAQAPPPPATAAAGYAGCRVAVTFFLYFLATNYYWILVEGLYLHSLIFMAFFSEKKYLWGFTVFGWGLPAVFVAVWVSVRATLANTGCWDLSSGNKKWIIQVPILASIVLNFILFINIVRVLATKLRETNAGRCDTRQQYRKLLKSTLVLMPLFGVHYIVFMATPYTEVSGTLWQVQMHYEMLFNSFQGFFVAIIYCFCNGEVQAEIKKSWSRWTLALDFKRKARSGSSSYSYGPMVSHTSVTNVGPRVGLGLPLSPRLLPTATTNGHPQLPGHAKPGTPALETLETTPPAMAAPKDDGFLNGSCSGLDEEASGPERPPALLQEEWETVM
As to the kind of experiment: In vitro cAMP signal activity in HKRK-B7 cells (LLC-PK1 cells overexpressing the human PTH1 receptor). The experiment is classed as cell-based. The note with it: HKRK-B7 cells; compound at 1×10^−3 M; […]; 0.1 µM.
With `O=C(Nc1ccccc1)c1ccccc1S(=O)(=O)N1CCC2(CC1)N=C(C1CCCCC1)NC2=O` [Compound 957, 2-(2-Cyclohexyl-4-oxo-1,3,8-triaza-spiro[4.5]dec-1-ene-8-sulfonyl)-N-phenyl-benzamide], the “cAMP production activity (%)” value was determined as 17%.

The same experiment, now with this note: HKRK-B7 cells; compound at 1×10^−3 M; cAMP produced as percentage of that produced by hPTH(1-34) at 100 nM.
Regarding `CC(=O)N1CCN(C(=O)c2cc(C)c(/C=C/S(=O)(=O)N3CCC4(CC3)N=C(c3cccc(OC(F)(F)F)c3)NC4=O)c(C)c2)CC1` [Compound 394, 8-{(E)-2-[4-(4-Acetyl-piperazine-1-carbonyl)-2,6-dimethyl-phenyl]-ethenesulfonyl}-2-(3-trifluoromethoxy-phenyl)-1,3,8-triaza-spiro[4.5]dec-1-en-4-one], the “cAMP production activity (%)” value came to 59%. On the same count and under the same terms, in the case of `CC(=O)NCc1cc(C)c(CCS(=O)(=O)N2CCC3(CC2)N=C(C2CCC(CCC(F)(F)F)CC2)NC3=O)c(C)c1` (centres unmarked) [Compound 772, N-[3,5-dimethyl-4-(2-{4-oxo-2-[4-(3,3,3-trifluoro-propyl)-cyclohexyl]-1,3,8-triaza-spiro[4.5]dec-1-ene-8-sulfonyl}-ethyl)-benzyl]-acetamide] it was 69%; in that of `Cc1cc(C(=O)N2CCC(N(C)C)CC2)cc(C)c1/C=C/S(=O)(=O)N1CCC2(CC1)N=C(c1cccc(OC(F)(F)F)c1)NC2=O` [Compound 405, 8-{(E)-2-[4-(4-dimethylamino-piperidine-1-carbonyl)-2,6-dimethyl-phenyl]-ethenesulfonyl}-2-(3-trifluoromethoxy-phenyl)-1,3,8-triaza-spiro[4.5]dec-1-en-4-one], 7.7%; in that of `Cc1cc(C(=O)N(C)C)cc(C)c1/C=C/S(=O)(=O)N1CCC2(CC1)N=C(c1cccc(OC(F)(F)F)c1)NC2=O` [Compound 961, 3,5,N,N-tetramethyl-4-{(E)-2-[4-oxo-2-(3-trifluoromethoxy-phenyl)-1,3,8-triaza-spiro[4.5]dec-1-ene-8-sulfonyl]-vinyl}-benzamide], 92%.

As to `Cc1cc(C(=O)N2CCC(C)(O)CC2)cc(C)c1/C=C/[S@TB4](=O)(=O)N1CCC2(CC1)N=C(c1ccc(OC(F)(F)F)c(F)c1)NC2=O` [Compound 1094, 2-(3-fluoro-4-trifluoromethoxy-phenyl)-8-{(E)-2-[4-(4-hydroxy-4-methyl-piperidine-1-carbonyl)-2,6-dimethyl-phenyl]-ethenesulfonyl}-1,3,8-triaza-spiro[4.5]dec-1-en-4-one], the “cAMP production activity (%)” value is recorded as 100%. On the same count and under the same terms, the figure for `CCCCCc1ccc(C2=NC3(CCN([S@TB18](=O)(=O)/C=C/c4c(C)cc(N(C)C(N)=O)cc4C)CC3)C(=O)N2)cc1OC` [Compound 1128, 1-(4-{(E)-2-[2-(3-methoxy-4-pentyl-phenyl)-4-oxo-1,3,8-triaza-spiro[4.5]dec-1-ene-8-sulfonyl]-vinyl}-3,5-dimethyl-phenyl)-1-methyl-urea] is 119%; for `O=C(O)Cn1ccc2c(/C=C/S(=O)(=O)N3CCC4(CC3)N=C(C3CCCCC3)NC4=O)cccc21` [Compound 1168, {4-[(E)-2-(2-Cyclohexyl-4-oxo-1,3,8-triaza-spiro[4.5]dec-1-ene-8-sulfonyl)-vinyl]-indol-1-yl}-acetic acid] it is 27%. Same read-out and setting: the figure for `Cc1cc(C(=O)N(C)C)ccc1CCS(=O)(=O)N1CCC2(CC1)N=C(c1cccc(F)c1)NC2=O` [Compound 109, 4-{2-[2-(3-fluoro-phenyl)-4-oxo-1,3,8-triaza-spiro[4.5]dec-1-ene-8-sulfonyl]-ethyl}-3,N,N-trimethyl-benzamide] is 62%. Consider `Cc1cc(N(C)C(N)=O)cc(C)c1/C=C/S(=O)(=O)N1CCC2(CC1)N=C(CCCCCCCCCCCC(=O)O)NC2=O` [Compound 1131, 12-(8-{(E)-2-[2,6-Dimethyl-4-(1-methyl-ureido)-phenyl]-ethenesulfonyl}-4-oxo-1,3,8-triaza-spiro[4.5]dec-1-en-2-yl)-dodecanoic acid], for which the “cAMP production activity (%)” value is 96%. As to `Cc1cc(N(C)C(N)=O)cc(C)c1/C=C/[S@TB4](=O)(=O)N1CCC2(CC1)N=C(CCCCCCCCCCC(F)F)NC2=O` [Compound 1125, 1-(4-{(E)-2-[2-(11,11-difluoro-undecyl)-4-oxo-1,3,8-triaza-spiro[4.5]dec-1-ene-8-sulfonyl]-vinyl}-3,5-dimethyl-phenyl)-1-methyl-urea], the “cAMP production activity (%)” value was 93%. `Cc1cc(S(=O)(=O)NC2CCN(Cc3ccccc3)CC2)ccc1CCS(=O)(=O)N1CCC2(CC1)N=C(c1cccc(OC(F)(F)F)c1)NC2=O` [Compound 848, N-(1-benzyl-piperidin-4-yl)-3-methyl-4-{2-[4-oxo-2-(3-trifluoromethoxy-phenyl)-1,3,8-triaza-spiro[4.5]dec-1-ene-8-sulfonyl]-ethyl}-benzenesulfonamide]: the “cAMP production activity (%)” value is 77%. Still for that read-out and setting: the figure for `Cc1cc(C(=O)N(C)C)ccc1CCS(=O)(=O)N1CCC2(CC1)N=C(c1ccc(C(F)(F)F)cc1C(F)(F)F)NC2=O` [Compound 100, 4-{2-[2-(2,4-bis-trifluoromethyl-phenyl)-4-oxo-1,3,8-triaza-spiro[4.5]dec-1-ene-8-sulfonyl]-ethyl}-3,N,N-trimethyl-benzamide] is 61%; for `O=C(NCCc1ccccc1)N1CCCC(C2=NC3(CCN(S(=O)(=O)CCc4cccc5ccccc45)CC3)C(=O)N2)C1` (centres unmarked) [Compound 455, 3-[8-(2-naphthalen-1-yl-ethanesulfonyl)-4-oxo-1,3,8-triaza-spiro[4.5]dec-1-en-2-yl]-piperidine-1-carboxylic acid phenethyl-amide] it is 31%. On the same count and under the same terms, in the case of `Cc1cc(C(=O)N2CCCO2)cc(C)c1CCS(=O)(=O)N1CCC2(CC1)N=C(C1CCC(C)CC1)NC2=O` (centres unmarked) [Compound 1182, 8-{2-[4-(isoxazolidine-2-carbonyl)-2,6-dimethyl-phenyl]-ethanesulfonyl}-2-(4-methyl-cyclohexyl)-1,3,8-triaza-spiro[4.5]dec-1-en-4-one] it was 109%. Still for that read-out and setting: in the case of `Cc1cc(C(=O)N(C)C)ccc1CCS(=O)(=O)N1CCC2(CC1)N=C(Nc1cccc(C(F)(F)F)c1)NC2=O` [Compound 1395, 3,N,N-Trimethyl-4-{2-[4-oxo-2-(3-trifluoromethyl-phenylamino)-1,3,8-triaza-spiro[4.5]dec-1-ene-8-sulfonyl]-ethyl}-benzamide] it was 68%; in that of `Cc1cc(C(=O)N2CCC(C)(O)CC2)cc(C)c1/C=C/S(=O)(=O)N1CCC2(CC1)N=C(C1CCC(C)CC1)NC2=O` (centres unmarked) [Compound 999, 8-{(E)-2-[4-(4-hydroxy-4-methyl-piperidine-1-carbonyl)-2,6-dimethyl-phenyl]-ethenesulfonyl}-2-(4-methyl-cyclohexyl)-1,3,8-triaza-spiro[4.5]dec-1-en-4-one], 61%.

As for `COCCN(C(C)=O)c1ccc(CCS(=O)(=O)N2CCC3(CC2)N=C(C2CCC(CCC(F)(F)F)CC2)NC3=O)c(C)c1` (centres unmarked) [Compound 755, N-(2-methoxy-ethyl)-N-[3-methyl-4-(2-{4-oxo-2-[4-(3,3,3-trifluoro-propyl)-cyclohexyl]-1,3,8-triaza-spiro[4.5]dec-1-ene-8-sulfonyl}-ethyl)-phenyl]-acetamide], the “cAMP production activity (%)” value turned out to be 74%. On the same count and under the same terms, the figure for `Cc1cc(C(=O)N2CCC(C)(O)CC2)cc(C)c1/C=C/[S@TB4](=O)(=O)N1CCC2(CC1)N=C(c1cccc(CC(F)(F)F)c1)NC2=O` [Compound 1097, 8-{(E)-2-[4-(4-hydroxy-4-methyl-piperidine-1-carbonyl)-2,6-dimethyl-phenyl]-ethenesulfonyl}-2-[3-(2,2,2-trifluoro-ethyl)-phenyl]-1,3,8-triaza-spiro[4.5]dec-1-en-4-one] is 90%; for `CCCCCCCCCC1=NC2(CCN(S(=O)(=O)CCc3ccc(N(CCOCCO)C(C)=O)cc3C)CC2)C(=O)N1` [Compound 825, N-[2-(2-hydroxy-ethoxy)-ethyl]-N-{3-methyl-4-[2-(2-nonyl-4-oxo-1,3,8-triaza-spiro[4.5]dec-1-ene-8-sulfonyl)-ethyl]-phenyl}-acetamide] it is 114%; for `Cc1cc2ccc1CCS(=O)(=O)N1CCC3(CC1)N=C(NC3=O)c1cc(cc(C(F)(F)F)c1)OCC/C=C\CN(C)C2=O` [Compound 1408] it is 5.1%.

`CC[C@H]1CC[C@H](C2=NC3(CCN(S(=O)(=O)/C=C/c4ccc(N5C(=O)NC(=O)C5C)cc4C)CC3)C(=O)N2)CC1` (some centres unmarked) [Compound 625, 1-(4-{(E)-2-[2-(4-ethyl-cyclohexyl)-4-oxo-1,3,8-triaza-spiro[4.5]dec-1-ene-8-sulfonyl]-vinyl}-3-methyl-phenyl)-5-methyl-imidazolidine-2,4-dione]: the “cAMP production activity (%)” value was found to be 47%.

On to `Cc1cc(C(=O)N2CCC(C)(O)CC2)cc(C)c1/C=C/S(=O)(=O)N1CCC2(CC1)N=C(c1ccc3c(c1)OCO3)NC2=O` [Compound 1194, 2-benzo[1,3]dioxol-5-yl-8-{(E)-2-[4-(4-hydroxy-4-methyl-piperidine-1-carbonyl)-2,6-dimethyl-phenyl]-ethenesulfonyl}-1,3,8-triaza-spiro[4.5]dec-1-en-4-one], for which the “cAMP production activity (%)” value is on record as 62%.
